Target: Adenosine receptor A2a (Homo sapiens, UniProt P29274)
Test: A2a binding affinity assay C
Protocol: Method (C): Measurement of A2a Binding Affinity Using an Alternative Radioligand Binding AssayMembranes used in this procedure were made by washing cell cultures twice with DPBS buffer (Dulbecco's phosphate buffered saline without calcium and magnesium, ThermoFisher Scientific, Cat. No. A1285601), and harvesting the cell cultures by mechanical scraping. The cells were collected by centrifugation and re-suspended in 10 mM HEPES, pH 7.4 containing 0.1 mM benzamidine (Sigma, Cat. No. B6506) and 0.1 mM PMSF (phenylmethylsulfonyl fluoride, Sigma, Cat. No. 10837091001). Cells were freeze-thawed twice in a dry ice/ethanol bath and homogenized with 25 to 30 strokes in a glass dounce homogenizer (Wheaton, Cat. No. 357546). Membranes were pelleted at 40,000×g for 20 min at 4° C. and re-suspended in assay buffer (5 mM HEPES, pH 7.4, 5 mM MgCl2; supplemented with 0.1 mM benzamidine) at a protein concentration of 2.6 mg/mL. Protein concentration was determined by the Bio-Rad method (Bio-Rad, Cat. No. 5000002). […] After normalization to total and non-specific binding, the percent effect at each compound concentration was calculated. The plot of percent effect versus the log of compound concentration was analyzed electronically using a 4-parameter logistic fit based on the Levenberg-Marquardt algorithm to generate IC50 values.

Sequence of Adenosine receptor A2a (P29274 whole entry): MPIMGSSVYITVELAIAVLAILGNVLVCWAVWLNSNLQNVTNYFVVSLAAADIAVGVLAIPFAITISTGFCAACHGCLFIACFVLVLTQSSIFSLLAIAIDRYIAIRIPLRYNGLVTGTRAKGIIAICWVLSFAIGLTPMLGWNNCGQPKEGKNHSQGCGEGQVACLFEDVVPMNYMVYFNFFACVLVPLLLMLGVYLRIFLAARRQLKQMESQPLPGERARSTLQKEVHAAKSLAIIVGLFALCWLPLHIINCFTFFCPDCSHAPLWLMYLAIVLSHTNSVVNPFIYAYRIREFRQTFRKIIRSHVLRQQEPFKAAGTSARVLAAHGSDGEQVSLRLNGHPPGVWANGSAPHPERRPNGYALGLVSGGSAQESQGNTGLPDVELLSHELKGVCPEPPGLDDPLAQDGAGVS

IC50: 0.122 µM
SMILES: Nc1nc(-c2ccccc2)c(C2CC2)c2nc(CCN3CC(F)(F)C3)nn12 [US12414952, Example 20.6]

— BindingDB's records for patent US12414952 (Merck Sharp & Dohme, 2025)
